Data published in PMC7914367, “Dual-ligand supramolecular nanofibers inspired by the renin-angiotensin system for the targeting and synergistic therapy of myocardial infarction” (Theranostics, 2021).
Values belong to the molecule of their own block, whether it stands above or below them. Square brackets hold non-standard residues; d marks the D form. Ends that are not written are not given here. Peptide text beside a SMILES is read from it. * marks the point of attachment. NBD = O=[N+]([O-])c1ccc(*)c2nonc12; βAla = NCCC(=O)O

What was measured:
[1] = target: T1, recombinant human MasR (rhMasR) (Homo sapiens, UniProt P04201); assay: Surface plasmon resonance imaging (SPRi) binding; settings: rhMasR immobilized on CM5 chip, analytes 0.001-10 μM in PBS
T1 construct: purchased Abnova H00004142-G01
T1 sequence (P04201 1-325): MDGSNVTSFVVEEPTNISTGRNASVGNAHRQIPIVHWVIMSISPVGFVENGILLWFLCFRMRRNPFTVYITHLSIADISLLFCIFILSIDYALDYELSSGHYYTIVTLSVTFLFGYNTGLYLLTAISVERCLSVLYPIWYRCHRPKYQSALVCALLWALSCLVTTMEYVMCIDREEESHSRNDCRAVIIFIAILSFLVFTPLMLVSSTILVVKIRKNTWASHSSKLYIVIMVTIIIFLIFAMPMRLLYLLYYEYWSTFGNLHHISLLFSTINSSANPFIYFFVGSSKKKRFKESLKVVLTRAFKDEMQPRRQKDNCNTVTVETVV

[2] = TEM of nanofibers (diameter); type: physicochemical; settings: SAA1-7 hydrogel, 1.0 wt% in PBS pH 7.4, heat-cooling
Description: To construct the dual-ligand supramolecular nanofibers, we designed and synthesized a peptide molecule NBD-^DF^DF^DY^DE^DEG-DRVYIHP (SAA1-7, Figure 1A & Figure S1) as a hydrogelator. […] SAA1-7 could self-assemble into a transparent hydrogel in PBS (pH 7.4) at a concentration of 1.0 wt% via a simple heat-cooling process, in which we observed uniform nanofibers with diameters of 7.6 ± 1.8 nm using transmission electron microscopy (TEM) (Figure S2). The drug loading efficiency and the stability of nanocarriers are attributed to the affinity between amphiphilic peptides and hydrophobic molecules. […] We measured the encapsulation efficiency (EE) and drug loading (DL) of TDCNfs. […]
Subsequently, we studied the co-assembly behaviors and the underlying mechanism of TDCNfs. […] We monitored and compared the nanostructures in the process of hydrogelation at different time points by TEM. […]
(§1) DL and EE were calculated using the following equation. […]
dissolved in PBS (5 mL) and th e pH was adjusted to 7.4. […] Next, 500 μL of the sample was removed at each time point and the rel ease of Tel was analyzed, while the remained SAA1-7 in the sample was analyzed using LC-MS […]
(§2) The CMC values were determined by dynamic light scattering (DLS) and the light scattering intensity was recorded for each concentration. […]

[3] = Critical micelle concentration by dynamic light scattering; type: physicochemical; settings: gradient concentrations in MilliQ water
Procedure: The details are given in Supporting Information.
S1.3 Drug Loading and Encapsulation Efficiency
Tel (dissolved in DMSO) was mixed with SAA1-7 (dissolved in PBS) (pH 7.4, 10 mg/mL) at molar ratios of 15%, 30%, 50%, and 70% (n = 3). After preparation, the mixtures were analy zed using LC-MS (LCMS-20AD, Shimadzu) after lyo philization.
as §1
dissolved in PBS (5 mL) and th e pH was adjusted to 7.4. Proteinase K was added at a concentration of 0.138 mg/mL and the reaction m ixtures were incubated at 37 °C for 24 h. Next, 500 μL of the sample was removed at each time point and the rel ease of Tel was analyzed, while the remained SAA1-7 in the sample was analyzed using LC-MS […]
S1.4 Transmission electron microscopy
The SAA1-7 with 50% molar ratio of Tel was incubated at 40 ℃ for 0 min, 30 min, 60 min, and 120 min, respectively. TEM samples in different time points were prepared. […]
were prepared. The sample preparation procedures : 10 µL samples of each were placed on a carbon-coated copper grid and in cubated for 30 seconds to allow the peptide nanostructures to adhere to the substrate, then rinsed twice with ultrapure water. […]
as §2

[4] = target: T2, AT1R (Rattus norvegicus, UniProt P25095); assay: Fluorescent co-localization with AT1R in NRCMs; type: cell-based; settings: OGD-conditioned NRCMs, 50 μM, 2 h, microscopy
T2 construct: NRCMs under OGD conditions expressed high levels of AT1R (red fluorescence); endogenous in cells; host or cells: primary neonatal rat cardiomyocytes (NRCMs) from Sprague-Dawley rats, normoxia or OGD
T2 sequence (P25095 1-359): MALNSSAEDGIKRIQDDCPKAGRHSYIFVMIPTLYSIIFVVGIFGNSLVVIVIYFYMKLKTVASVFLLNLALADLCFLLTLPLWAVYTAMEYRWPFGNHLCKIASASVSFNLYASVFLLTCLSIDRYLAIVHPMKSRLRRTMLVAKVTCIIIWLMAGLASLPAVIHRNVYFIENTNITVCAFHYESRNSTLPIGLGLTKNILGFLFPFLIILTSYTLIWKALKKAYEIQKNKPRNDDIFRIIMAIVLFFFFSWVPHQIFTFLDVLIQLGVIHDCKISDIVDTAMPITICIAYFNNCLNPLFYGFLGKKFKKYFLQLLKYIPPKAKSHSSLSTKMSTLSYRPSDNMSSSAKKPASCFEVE
Procedure: Next, the cells were blocked by incubating with goat serum for 30 min and incubated with primary antibodies overnight at 4 °C. The primary antibodies used here included anti-AT1R (1:200 dilution), anti-cTNT (1:500 dilution), anti-P65 (1:800 dilution), and anti‐α-SMA (1:400 dilution). The cells were incubated with FITC-labeled Goat Anti-Rabbit IgG (1:200 dilution) or Cy3-labeled Goat Anti-Mouse IgG (1:200 dilution) for 2 h at room temperature. The cells were counterstained with DAPI and imaged using a fluorescence microscope (Leica Dmi8, Germany).
(50 μM), SAA1-7+Tel (50 μM) and NBDAng1-7+Tel (50 μM) for further 2 h. PBS was then used to wash cells for three times and 4% paraformaldehyde was added to fix cells for 20 min at room temperature. After being blocked with goat serum for 30 min, rabbit anti-AT1R primary antibody (1:200 dilution) was added to incubat e wit h NRCMs overnight at 4 ℃. After being washed with PBS for three times, Cy3-labeled Goat Anti-Rabbit IgG (1:200 solut ion) was added and incubated with cells for 2 h at room temperature. Cells were then stained with DAPI. The fluorescence i mages were obtained by the fluorescence microscope (λexc =532 nm for AT1R, λexc = 488 nm for NBD, λexc = 405 nm for DAPI).

[5] = system: MI mouse model; assay: Masson's trichrome staining, infarct size; type: in vivo, C57BL/6 mice; settings: MI mice, 4 weeks, collagen area/LV area, MI group 36.60%, vehicle 1219.84 μg/kg, n = 5
Procedure: Adult male C57BL/6 mice (20-30 g, 8-10 week) were purchased from the laboratory animal center of Southern Medical University, China. The protocols were approved according to the Zhujiang Hospital of Southern Medical University animal care and use committee guidelines, which conform to the guide for the care and use of laboratory animals published by the US National Institutes of Health (8th edition, 2011). […] Next, 100 µL of different drugs were administered intravenously through tail vein injection every 2 days for 3 weeks, while the mice in the Sham and MI groups were treated with an equal volume of PBS.
The mice were sacrificed at 4 weeks after the induction of MI, and hearts and major organs were harvested and fixed in 4% paraformaldehyde overnight and embedded in paraffin. The hearts were sectioned to 5 µm along the short axis transversely across the infarct zone. The major organs were sectioned to 5 µm along the short axis. Following deparaffinization and dehydration, the samples underwent H&E and Masson's trichrome staining. The sections were observed under a microscope to evaluate the therapeutic effect and safety of the drugs. The collagen and LV areas were measured using the Image-Pro Plus software (version 6.0; Media Cybernetics, Silver Spring, MD, USA). Infarct size (%) was calculated as the ratio of the collagen area to the LV area.

[6] = system: NRCMs; assay: TUNEL staining of OGD NRCMs; type: cell-based, rat; settings: 10 μM, 2-3 h, OGD group 26.70%, n = 3
[7] = system: MI mouse model; assay: In vivo mechanism: caspase-3 IHC, α-SMA immunofluorescence, type I collagen, TGF-β1, serum cytokines; set-up: species or system C57BL/6 mice; settings: MI mice, 4 weeks post-treatment, immunofluorescence, n = 5
Procedure: Frozen sections were prepared in vivo, as described previously. For drugs distribution, near-infrared laser imager (GE Amersham Typhoon, Sweden) was used to capture full cross section of hearts. For co-localization experiments, the mice hearts were dissected 24 h post-injection of drugs. Anti-AT1R primary antibody (1:200 dilution) was used as the primary antibody. For fibrosis investigation, the frozen sections were incubated with primary antibodies against α-SMA (1:400 dilution). The staining signals were visualized using FITC-labeled Goat Anti-Rabbit IgG (1:200 dilution) or Cy3-labeled Goat Anti-Rabbit IgG (1:200 dilution). The sections were counterstained with DAPI and examined under a laser confocal scanning microscope (Leica TCS SP8, Germany).
The heart tissues were fixed in 4% paraformaldehyde, dehydrated in ethanol, cleared in xylene, and embedded in paraffin. The samples were then cut into 6 μm sections on a microtome and deparaffinized. The sections were blocked by incubating with 1% BSA at room temperature for 30 min and then incubated overnight with anti-cleaved caspase-3 (1:700 dilution), anti-AT1R (1:100 dilution), anti-Collagen I (1:200 dilution) at 4 °C. Next, the sections were washed and incubated with secondary antibodies (1:500 dilution) at room temperature. The tissue sections were incubated with diaminobenzidine and counterstained with hematoxylin, dehydrated, and mounted before viewing under a microscope.
The serum and CM were collected at the indicated time points from the different groups of mice. The levels of TNF-α, IL-6, ALT, Cre, and TGF-β1 were measured using ELISA kits according to the manufacturer's protocol. The absorbance was measured at 450 nm using a microplate reader.

[8] = target: T3, recombinant human MasR (Recombinant Human MAS1 protein) (human) (UniProt P04201); assay: SPR; SPR imaging (SPRi, PlexArray HT); rhMasR immobilised on a CM5 sensor chip; Ang1-7, SAA1-7 and TDCNfs diluted in PBS at 0.001 to 10 μM
T3 sequence (P04201 whole entry, looked up): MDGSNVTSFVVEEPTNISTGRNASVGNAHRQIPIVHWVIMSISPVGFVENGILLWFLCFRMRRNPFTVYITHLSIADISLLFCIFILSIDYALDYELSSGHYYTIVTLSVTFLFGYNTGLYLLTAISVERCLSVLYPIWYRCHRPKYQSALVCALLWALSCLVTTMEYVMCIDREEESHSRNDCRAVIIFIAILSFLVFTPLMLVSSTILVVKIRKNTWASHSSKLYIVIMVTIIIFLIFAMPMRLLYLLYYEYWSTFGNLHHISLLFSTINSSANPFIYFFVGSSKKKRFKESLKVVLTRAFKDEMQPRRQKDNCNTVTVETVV

Kd [1]: 10.3 nM
Molecule: CC[C@H](C)[C@H](NC(=O)[C@H](Cc1ccc(O)cc1)NC(=O)[C@@H](NC(=O)[C@H](CCCNC(=N)N)NC(=O)[C@@H](N)CC(=O)O)C(C)C)C(=O)N[C@@H](Cc1c[nH]cn1)C(=O)N1CCC[C@H]1C(=O)O [Ang1-7, DRVYIHP]

Kd [1]: 12.6 nM | nanofiber diameter (TEM) [2]: 7.6 ± 1.8 nm | critical micelle concentration (CMC) [3]: 21.95 µM | co-localization with AT1R [4]: slightly overlapped signal
Molecule: CC[C@H](C)[C@H](NC(=O)[C@H](Cc1ccc(O)cc1)NC(=O)[C@@H](NC(=O)[C@H](CCCNC(=N)N)NC(=O)[C@H](CC(=O)O)NC(=O)CNC(=O)[C@@H](CCC(=O)O)NC(=O)[C@@H](CCC(=O)O)NC(=O)[C@@H](Cc1ccc(O)cc1)NC(=O)[C@@H](Cc1ccccc1)NC(=O)[C@@H](Cc1ccccc1)NC(=O)CCNc1ccc([N+](=O)[O-])c2nonc12)C(C)C)C(=O)N[C@@H](Cc1c[nH]cn1)C(=O)N1CCC[C@H]1C(=O)O [SAA1-7, NBD-^DF^DF^DY^DE^DEG-DRVYIHP] ({NBD-βAla}-[dF][dF][dY][dE][dE]GDRVYIHP-OH)

Molecule: NBD-DFDFDYDEDEG-YRVIPHD [vehicle]
infarct size [5]: 32.92% | TUNEL-positive NRCMs [6]: 23.5% | α-SMA expression in the non-infarcted area [7]: inhibited to a certain extent

co-localization with AT1R [4]: slightly overlapped signal
Molecule: NBDAng1-7: Ang1-7 endowed with fluorescence by NBD labeling

Kd [8]: 16.5 nM | binding value (RU) [8]: 58.2 RU
Molecule: {NBD}-[dF][dF][dY][dE][dE]GDRVYIHP (also: co-assembly nanofibers doped with telmisartan) [telmisartan-doped co-assembly nanofibers]

Kd [8]: 10.3 nM | binding value (RU) [8]: 65.1 RU
Molecule: DRVYIHP [angiotensin 1-7]

Kd [8]: 12.6 nM | binding value (RU) [8]: 62.3 RU
Molecule: {NBD}-[dF][dF][dY][dE][dE]GDRVYIHP [self-assembly angiotensin 1-7 (NBD-DF-DF-DY-DE-DE-G-DRVYIHP)]
